Assay results: ChEMBL document CHEMBL3217737, “Discovery of a highly selective FLT3 kinase inhibitor from phenotypic cell viability profiling” (Medchemcomm, 2013)

How the values were obtained:
[1] = Cytotoxicity against mouse NIH/3T3 cells assessed as cell viability at 1 uM after 24 hrs by WST1 assay; type: cell-based, NIH3T3; settings: read-out: Activity
MCF7 = assay: Cytotoxicity against human MCF7 cells assessed as cell viability at 1 uM after 24 hrs by WST1 assay; type: functional; settings: MCF7, 24 h, read-out: Activity
[2] = Cytotoxicity against human U87MG cells assessed as cell viability at 1 uM after 24 hrs by WST1 assay; type: functional, U-87MG ATCC; settings: U-87 MG, read-out: Activity
MV4-11 = assay: Cytotoxicity against human MV4-11 cells assessed as cell viability at 1 uM after 24 hrs by WST1 assay; type: functional; settings: MV4-11, 24 h, read-out: Activity
MDA-MB-231 = assay: Cytotoxicity against human MDA-MB-231 cells assessed as cell viability at 1 uM after 24 hrs by WST1 assay; type: functional; settings: MDA-MB-231, 24 h, read-out: Activity
[3] = Cytotoxicity against rat L6 cells assessed as cell viability at 1 uM after 24 hrs by WST1 assay; type: cell-based; settings: read-out: Activity

Compound `COc1ccc(-c2n[nH]c3ncc(-c4cccc(F)c4N)cc23)cc1` has a viability at 24 h, 1 µM [1] of 108%, a viability at 1 µM (MCF7) of 100% and a viability at 1 µM [2] of 94%. The viability at 1 µM (MV4-11) was 82%, the viability at 1 µM (MDA-MB-231) was 109% and the viability at 24 h, 1 µM [3] was 100%.

In the case of `COc1ccc(-c2n[nH]c3ncc(-c4ccccc4N)cc23)cc1`, the viability at 24 h, 1 µM [1] is reported as 94%, the viability at 1 µM (MCF7) is reported as 102% and the viability at 1 µM [2] is reported as 94%. For the same compound, the viability at 1 µM (MV4-11) was 89%, the viability at 1 µM (MDA-MB-231) was 101% and the viability at 24 h, 1 µM [3] was 108%.

`Cc1n[nH]c2ncc(-c3ccc(Cl)cc3N)cc12` showed a viability at 24 h, 1 µM [1] of 103%, a viability at 1 µM (MCF7) of 102% and a viability at 1 µM [2] of 99%. It also gave a viability at 1 µM (MV4-11) of 91%, a viability at 1 µM (MDA-MB-231) of 107% and a viability at 24 h, 1 µM [3] of 102%.

`CNc1ccccc1-c1cnc2[nH]nc(-c3ccc(OC)cc3)c2c1` showed a viability at 24 h, 1 µM [1] of 106%, a viability at 1 µM (MCF7) of 101% and a viability at 1 µM [2] of 100%. For the same compound, the viability at 1 µM (MV4-11) was 86%, the viability at 1 µM (MDA-MB-231) was 114% and the viability at 24 h, 1 µM [3] was 109%.

With `COc1ccc(-c2n[nH]c3ncc(-c4c(N)cccc4[N+](=O)[O-])cc23)cc1` the viability at 24 h, 1 µM [1] was 102%, the viability at 1 µM (MCF7) was 97% and the viability at 1 µM [2] was 104%. It also gave a viability at 1 µM (MV4-11) of 93%, a viability at 1 µM (MDA-MB-231) of 123% and a viability at 24 h, 1 µM [3] of 110%.

`COc1ccc(-c2n[nH]c3ncc(-c4cc(Br)ccc4N)cc23)cc1` gave a viability at 24 h, 1 µM [1] of 108%, a viability at 1 µM (MCF7) of 88% and a viability at 1 µM [2] of 100%. It also gave a viability at 1 µM (MV4-11) of 82%, a viability at 1 µM (MDA-MB-231) of 112% and a viability at 24 h, 1 µM [3] of 104%.

Work on `COc1ccc(-c2n[nH]c3ncc(-c4ccccc4NCc4ccccc4)cc23)cc1` yielded a viability at 24 h, 1 µM [1] of 99%, a viability at 1 µM (MCF7) of 98% and a viability at 1 µM [2] of 95%. It also gave a viability at 1 µM (MV4-11) of 97%, a viability at 1 µM (MDA-MB-231) of 109% and a viability at 24 h, 1 µM [3] of 102%.

`COc1ccc(-c2n[nH]c3ncc(-c4ccccc4NC(=O)NCc4ccccc4)cc23)cc1` gave a viability at 24 h, 1 µM [1] of 94%, a viability at 1 µM (MCF7) of 99% and a viability at 1 µM [2] of 94%. For the same compound, the viability at 1 µM (MV4-11) was 104%, the viability at 1 µM (MDA-MB-231) was 101% and the viability at 24 h, 1 µM [3] was 104%.

`Nc1cc(Cl)ccc1-c1cnc2[nH]nc(-c3ccccc3)c2c1` showed a viability at 24 h, 1 µM [1] of 111%, a viability at 1 µM (MCF7) of 103% and a viability at 1 µM [2] of 101%. For the same compound, the viability at 1 µM (MV4-11) was 85%, the viability at 1 µM (MDA-MB-231) was 105% and the viability at 24 h, 1 µM [3] was 96%.

For `COC(=O)c1cccc(N)c1-c1cnc2[nH]nc(-c3ccc(OC)cc3)c2c1`, the viability at 24 h, 1 µM [1] was 101%, the viability at 1 µM (MCF7) was 89% and the viability at 1 µM [2] was 102%. For the same compound, the viability at 1 µM (MV4-11) was 90%, the viability at 1 µM (MDA-MB-231) was 110% and the viability at 24 h, 1 µM [3] was 105%.

In the case of `COc1ccc(-c2n[nH]c3ncc(-c4cc([N+](=O)[O-])ccc4N)cc23)cc1`, the viability at 24 h, 1 µM [1] is reported as 99%, the viability at 1 µM (MCF7) is reported as 102% and the viability at 1 µM [2] is reported as 97%. The viability at 1 µM (MV4-11) was 92%, the viability at 1 µM (MDA-MB-231) was 114% and the viability at 24 h, 1 µM [3] was 92%.

In the case of `COc1ccc(-c2n[nH]c3ncc(-c4ccc(F)cc4N)cc23)cc1`, the viability at 24 h, 1 µM [1] is reported as 104%, the viability at 1 µM (MCF7) is reported as 97% and the viability at 1 µM [2] is reported as 94%. It also gave a viability at 1 µM (MV4-11) of 94%, a viability at 1 µM (MDA-MB-231) of 95% and a viability at 24 h, 1 µM [3] of 104%.
